Reference: patent EP1009837B1 (priority 1997, dated 1999)

How the values were obtained:
[1] = tested on: S. cerevisiae; conditions: typical low concentration; background statement; cited from earlier work
[2] = tested on: FY23Δcox5a
Procedure: (§1) Strain-specific ethanol tolerances were determined in batch cultures in specially adapted 100ml Erienmeyer flasks (called Klett Flasks) in combination with the Klett Summerson colorimeter and a green filter (Klett Summerson, USA). Cultures were grown to early exponential phase overnight and then split into 18ml aliquots to which 2ml of either sterile distilled water or ethanol solution were added to the aliquots giving final concentrations of 0, 2,3,4,6 and 10% (w/v) ethanol. Each concentration was carried out in triplicate and hourly measurements were made of cell density. A 1ml sample was extracted from the flask, diluted and plated onto YPD for a viable cell count. The remainder of the sample was centrifuged (15,000 rpm, 4°C, 5 min) and the supernatant frozen for subsequent analysis of ethanol concentration by GC.
(§2) All four members of the isogenic series (FY23WT, FY23Δpet191, FY23Δcox5a and FY23ρ^0) were grown in batch culture at 30°C and ethanol, at various concentrations, was introduced at the beginning of the exponential phase. Cell growth was followed for eight hours measuring optical densities with a Klett meter.
(§3) Graphs were plotted of loge Klett units against elapsed time and linear regression analysis was performed to calculate culture specific growth rates, µ. The effect of ethanol on the growth rate of the 4 members of the series was analysed by comparing relative growth rates at each ethanol concentration, and calculating these as a percentage of the growth rate in the absence of ethanol.
(§4) Ethanol inhibition kinetics are thought to follow those of non-competitive inhibition and can be modeled using a variant of the Monod equation. From the specific growth rate values calculated, it is possible to determine values of Ki by inserting them into the rearranged equation [µm/µi - 1 = I. 1/Ki]. […] The initial values of µ calculated are µapparent values determined from the growth of a culture containing both living and dead cells.

[3] = tested on: FY23ρ^0
Procedure: as §1, §2, §3, §4

[4] = target: FY23WT; conditions: strain FY23WT (grande parent); batch culture 30°C; exogenous ethanol 0-10% (w/v); µ corrected for viability
Procedure: as §1, §2, §3, §4

[5] = tested on: FY23Δpet191
Procedure: as §1, §2, §3, §4

SMILES | concentration to which S. cerevisiae is sensitive [1] [µg/mL] | ethanol tolerance relative to the wild-type strain ([2]; FY23Δcox5a, Ki as percentage of FY23WT) [%] | Ki (true growth rate) ([2]; strain FY23Δcox5a (nuclear petite), batch culture 30°C, µ corrected for viability) | ethanol tolerance relative to FY23 WT ([3]; mitochondrial petite, Ki as percentage of FY23WT) [%] | Ki (true growth rate) ([3]; strain FY23ρ^0 (mitochondrial petite), batch culture 30°C, µ corrected for viability) | Ki (true growth rate) [4] | Ki as percentage of the wild-type value ([5]; FY23Δpet191, Ki relative to FY23WT) | Ki (true growth rate) ([5]; strain FY23Δpet191 (nuclear petite), batch culture 30°C, µ corrected for viability)
C[C@@H]1C[C@@H]([C@H](O)CC2CC(=O)NC(=O)C2)C(=O)[C@@H](C)C1 [cycloheximide] | ~0.2 |  |  |  |  |  |  | 
CCO [ethanol] |  | 86 | 1.94 % (w/v) | 76 | 1.71 % (w/v) | 2.30 % (w/v) | approximately 95% | 2.14 % (w/v)
